In patent publication US5162336A, “Tetrahydro-pyrido-indoles as cholecystokinin and gastrin antagonists” (Rhone-Poulenc Rorer Pharmaceuticals Inc., priority 1990, dated 1992):
pIC50: −log10 of the molar value.

Molecular target: T1, CCK-A receptor (Rattus norvegicus, UniProt P30551)
T1 construct: from tissue; host or cells: pancreas membranes of Sprague-Dawley rat
T1 sequence (P30551 1-444): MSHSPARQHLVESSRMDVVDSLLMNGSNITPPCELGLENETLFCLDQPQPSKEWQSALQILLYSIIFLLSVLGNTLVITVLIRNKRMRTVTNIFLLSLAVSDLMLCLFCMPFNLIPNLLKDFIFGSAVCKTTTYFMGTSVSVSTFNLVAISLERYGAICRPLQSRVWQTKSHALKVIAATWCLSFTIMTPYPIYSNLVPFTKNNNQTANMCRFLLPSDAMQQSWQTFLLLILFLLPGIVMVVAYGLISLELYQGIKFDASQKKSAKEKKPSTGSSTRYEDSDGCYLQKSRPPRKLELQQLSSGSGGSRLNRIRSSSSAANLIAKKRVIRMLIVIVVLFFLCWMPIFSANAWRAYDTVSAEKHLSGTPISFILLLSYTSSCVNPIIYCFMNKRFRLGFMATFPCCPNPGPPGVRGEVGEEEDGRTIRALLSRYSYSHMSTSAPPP
Assay: CCK-A receptor binding assay (displacement of 3H-L-364,718 from rat pancreas membranes)
Set-up: species or system Sprague-Dawley rat
Conditions: 3H-L-364,718 0.2 nM, 37° C., 30 min, read-out: In vitro Binding Data IC50 CCK
Procedure: Washer Buffer (for use with Brandel Cell Harvester):
30 liters of 50 mM Tris, ph 7.7: Dissolve 181.7 g. Tris base in 4 1. deionized water at room temperature. Adjust pH to 7.7 with 6 N HCl and Q.S. to 30 1.
50 mM Tris-Cl, 5 mM MgCl2, 5 mM dithio-thretiol, 0.14 mg/ml bacitracin, and 2 mg/ml bovine serum albumin.
1 liter of 5X stock buffer:
30.28 g. Tris base per 800 ml D.I. water 5.09 g. MgCl2 6 H2 O, pH to 7.7 at room temperature with 6N HCl and Q.S. 1 liter, store at 4° C.
250 ml working buffer kept on ice:
50 ml of 5X stock buffer 0.1928 g. dithiothretiol (5 mM), 35 mg bacitracin (0.14 mg/ml), and 0.5 g. BSA (2mg/ml).
Unlabeled L-364,718(nonpeptide ligand):
Unlabeled L-364,718 (300 nM final concentration) is used to define nonspecific binding. A 3 mM solution is made in absolute ethanol and stored in a scintillation vial at -70° C. Aliquots are diluted 100-fold in the assay.
A Sprague-Dawley rat is sacrificed by asphyxiation with carbon dioxide and the pancreas removed. The tissue is immersed in cold wash buffer and carefully trimmed of fat, connective tissue, blood vessels, blotted and weighed. The tissue is homogenized in a Sorvall SS-34 centrifuge tube in 50 volumes of wash buffer using a Polytron at setting 7 for 15 seconds. The tissue is centrifuged (Sorvall SS-34) at 19,000 rpm for 10 min. The supernatant is poured off and the pellet resuspended in sufficient buffer to obtain a contraction of 40 mg tissue wet weight/ml. Separate aliquots (2,3ml) are placed in each of 8 centrifuge tubes and centrifuged as before. The supernatants are poured off and the pellets stored at -70° C. Stored pellets are sufficient for the assay of 160 tubes and are stable for 1-2 months.
During the assay the stored membranes are resuspended in 40 ml of assay buffer by scraping the pellet off the wall of the centrifuge tube and washing it into a teflon-glass homogenizer. Membranes are resuspended by 5 passes with the teflon pestle and the membranes stored on ice until ready for use.
Preparation of Compounds:
Compounds are prepared in DMSO (dimethyl sulfoxide) or in assay buffer. The majority of structures active as CCK antagonists generally require DMSO for complete solubility. Approximately 2-3 mg of compound is weighed directly into a 13×100 mm test tube and sufficient DMSO added to obtain a working stock solution at a concentration 100 fold greater than the highest concentration being tested in the assay. A total of 10 μl of each concentration of drug is added into a final volume of 1 ml to yield a 100 fold dilution of the, working stock solution. Control binding tubes ("totals and nonspecifics") are also treated with 10 μl DMSO.
^3 H-L-364,718 is obtained from New England Nuclear (Cat. #971) and is used as supplied. The final assay concentration of ^3 H-L-364,718 in assay buffer should be 0.2 nM in a final assay volume of 1 ml. ^3 H-L-364,718 (0.2 pmol) is added into the assay in a volume of 25 μl (8 nM working stock solution). The required dilution (usually>1000 fold) is obtained by dividing the working stock concentration into the concentration of the specific lot.
Samples are prepared in triplicate and a "total" (buffer addition) and "nonspecific" (300 nM unlabeled L-364,718) set of tubes included in each set of 24 tubes. The remaining 6 sets of triplicates are used either for screening or IC50 determinations. The order of addition is drugs-DMSO, buffer, unlabeled L-364,718, ^3 H-L-364,718, and to start the assay, membranes.
While tubes are incubating a shaking water bath at 37° C. for 30 min Brandel deposit/dispense filters are presoaked in wash buffer. Following the end of the incubation, sets of 24 tubes are rapidly washed with assay buffer as follows. Assay buffer is added to the incubation tubes to the height of the uppermost cross support in the standard Brandel test tube rack and the contents immediately aspirated. This process is repeated twice more, the filter removed, marked and the next set of 24 tubes processed. […]

SMILES	pIC50
O=C(NC(c1ccccc1)c1ccccc1)[C@H]1Cc2c([nH]c3ccccc23)CN1 [Example 6, (3R)-3-diphenylmethylcarbamoyl-1,2,3,4-tetrahydro-9H-pyrido[3,4-b]indole]	4.21
Cc1cccc(NC(=O)N2Cc3[nH]c4ccccc4c3C[C@H]2C(=O)N[C@@H](CC(C)C)C(=O)N[C@@H](CC(=O)O)C(N)=O)c1 [Example 12, N-[(3S)-2-(3-methylphenylcarbamoyl)-1,2,3,4-tetrahydro-9H-pyrido[3,4-b]indole-3-carboxyl]-L-leucyl-L-aspartic acid amide]	3.77
NC(=O)[C@H](CC(=O)O)NC(=O)[C@H]1Cc2c([nH]c3ccccc23)CN1 [Example 3, N-[(3R)-1,2,3,4-tetrahydro-9H-pyrido[3,4-b]-indole-3-carboxyl]-L-aspartic acid amide]	< 3.52
Cc1cccc(NC(=O)N2Cc3[nH]c4ccccc4c3C[C@@H]2C(=O)N[C@@H](C)C(=O)N[C@@H](CC(=O)O)C(N)=O)c1 [Example 58]	4.19
O=C(NCC(c1ccccc1)c1ccccc1)[C@H]1Cc2c([nH]c3ccccc23)CN1 [Example 5, (3R)-3-(2,2'-diphenyl)ethylcarbamoyl-1,2,3,4-tetrahydro-9H-pyrido[3,4-b]indole]	4.22 to 4.30
O=C(Nc1ccccc1C(=O)N1CCCC1)[C@H]1Cc2c([nH]c3ccccc23)CN1C(=O)c1ccc2ccccc2c1 [Example 20, pyrrolidine-2-N-[(3R)-2-(2-naphthoyl)-1,2,3,4-tetrahydro-9H-pyrido[3,4-b]indole-3-carboxyl]aminobenzamide]	< 4.52
NC(=O)[C@H](CC(=O)O)NC(=O)[C@H]1Cc2c([nH]c3ccccc23)CN1C(=O)c1ccccc1 [Example 8, N-[(3R)-2-benzoyl-1,2,3,4-tetrahydro-9H-pyrido[3,4-b]indole-3-carboxyl]-L-aspartic acid amide]	4.09
Cc1cccc(NC(=O)N2Cc3[nH]c4ccccc4c3C[C@@H]2C(=O)N[C@@H](CC(C)C)C(N)=O)c1 [Example 39, N-[(3R)-2-(3-methylphenylcarbamoyl)-1,2,3,4-tetrahydro-9H-pyrido[3,4-b]indole-3-carboxy]-L-leucinamide]	< 4.00
Cc1cccc(NC(=O)N2Cc3[nH]c4ccccc4c3C[C@H]2C(=O)N[C@H](CC(C)C)C(=O)N[C@@H](CC(=O)O)C(N)=O)c1 [Example 52]	4.28
CCOC(=O)c1ccccc1NC(=O)[C@H]1Cc2c([nH]c3ccccc23)CN1C(=O)OCc1ccccc1 [Example 17]	< 5.00
CC(C)C[C@H](NC(=O)[C@H]1Cc2c([nH]c3ccccc23)CN1C(=O)Nc1cccc2ccccc12)C(=O)N[C@@H](CC(=O)O)C(N)=O [Example 67, N-[(3R)-2-(1-naphthylcarbamoyl)-1,2,3,4-tetrahydro-9H-pyrido[3,4-b]indole-3-carboxyl]-L-leucyl-L-aspartic acid amide]	4.00
CC(C)C[C@H](NC(=O)[C@H]1Cc2c([nH]c3ccccc23)CN1C(=O)Nc1ccc(Cl)c(Cl)c1)C(=O)NCC(N)=O [Example 28]	5.05
CC(C)C[C@H](NC(=O)[C@@H]1Cc2c([nH]c3ccccc23)CN1)C(=O)N[C@@H](CC(=O)O)C(N)=O [Example 2, N-[(3S)-1,2,3,4-tetrahydro-9H-pyrido[3,4-b]indole-3-carboxyl]-L-leucyl-L-aspartic acid amide]	< 3.52
Cc1cccc(NC(=O)N2Cc3[nH]c4ccccc4c3C[C@@H]2C(=O)N[C@@H](CC(C)C)C(=O)N[C@@H](CC(N)=O)C(=O)O)c1 [Example 50]	4.04
CC(C)C[C@H](NC(=O)[C@H]1Cc2c([nH]c3ccccc23)CN1C(=O)Nc1ccc(Cl)c(Cl)c1)C(=O)N[C@@H](CC(=O)O)C(N)=O [Example 66]	4.62
CC[C@H](C)[C@H](NC(=O)[C@H]1Cc2c([nH]c3ccccc23)CN1C(=O)Nc1ccc(Cl)c(Cl)c1)C(=O)N[C@@H](CC(=O)O)C(N)=O [Example 24, N-[(3R)-2-(3,4-dichlorophenylcarbamoyl)-1,2,3,4-tetrahydro-9H-pyrido[3,4-b]indol-3-yl]carbonyl-L-isoleucyl-L-aspartic acid amide]	4.44
CC(C)C[C@H](NC(=O)[C@H]1Cc2c([nH]c3ccccc23)CN1C(=O)Nc1ccc2ccccc2c1)C(=O)N[C@@H](CC(=O)O)C(N)=O [Example 62]	5.03
Cc1cccc(NC(=O)N2Cc3[nH]c4ccccc4c3C[C@@H]2C(=O)NCC(=O)N[C@@H](CC(=O)O)C(N)=O)c1 [Example 56, N-[(3R)-2-(3-methylphenylcarbamoyl)-1,2,3,4-tetrahydro-9H-pyido[3,4-b]indole-3-carboxyl]glycyl-L-aspartic acid amide]	4.47
NC(=O)[C@H](CC(=O)O)NC(=O)C1(NC(=O)[C@H]2Cc3c([nH]c4ccccc34)CN2C(=O)Nc2ccc(Cl)c(Cl)c2)CCCC1 [Example 26]	4.00
CC(C)C[C@H](NC(=O)[C@H]1Cc2c([nH]c3ccccc23)CN1C(=O)c1ccccc1)C(=O)N[C@@H](CC(=O)O)C(N)=O [Example 9, N-[(3R)-2-benzoyl-1,2,3,4-tetrahydro-9H-pyrido[3,4-b]indole-3-carboxyl]-L-leucyl-L-aspartic acid amide]	3.64
Cc1cccc(NC(=O)N2Cc3[nH]c4ccccc4c3C[C@@H]2C(=O)N[C@@H](CC(C)C)C(=O)N[C@H](CC(=O)O)C(N)=O)c1 [Example 51, N-[(3R)-2-(3-methylphenylcarbamoyl)-1,2,3,4-tetrahydro-9H-pyrido[3,4-b]indole-3-carboxyl]-L-leucyl-D-aspartic acid amide]	4.00
CCOC(=O)c1cccc(NC(=O)[C@H]2Cc3c([nH]c4ccccc34)CN2C(=O)OCc2ccccc2)c1 [Example 16, ethyl 3-N-[(3R)-2-carbobenzoxy-1,2,3,4-tetrahydro-9H-pyrido[3,4-b]indole-3-carboxyl]aminobenzoate]	4.60 to 5.00
O=C(Nc1ccccc1C(=O)N1CCCC1)[C@@H]1Cc2c([nH]c3ccccc23)CN1C(=O)OCc1ccccc1 [Example 19, pyrrolidine-2-N-[(3S)-2-carbobenzoxy-1,2,3,4-tetrahydro-9H-pyrido[3,4-b]indole-3-carboxyl]aminobenzamide]	4.70
Cc1cc(C)cc(NC(=O)N2Cc3[nH]c4ccccc4c3C[C@@H]2C(=O)N[C@@H](CC(C)C)C(=O)N[C@@H](CC(=O)O)C(N)=O)c1 [Example 60, N-[(3R)-2-(3,5-dimethylphenylcarbamoyl)-1,2,3,4-tetrahydro-9H-pyrido[3,4-b]indole-3-carboxyl]-L-leucyl-L-aspartic acid amide]	4.19
Cc1cccc(NC(=O)N2Cc3[nH]c4ccccc4c3C[C@@H]2C(=O)N[C@@H](COCc2ccccc2)C(=O)N[C@@H](CC(=O)O)C(N)=O)c1 [Example 64]	4.54
